The target in experiment [1] is CDK2 (human) (UniProt P24941). Description: Enzyme Assay. Conditions: concentration not given here.
In experiment [2] the target is MAPK14 (human) (UniProt Q16539). The experiment in a line: Inhibition of MAPK14 Kinase Activity. The following applies: concentration not given here.

For orientation: inhibition means the share of the control response that was lost under treatment. Lower therefore signals a response near the control.

MAPK14 (human), sequence (Q16539 whole entry, looked up): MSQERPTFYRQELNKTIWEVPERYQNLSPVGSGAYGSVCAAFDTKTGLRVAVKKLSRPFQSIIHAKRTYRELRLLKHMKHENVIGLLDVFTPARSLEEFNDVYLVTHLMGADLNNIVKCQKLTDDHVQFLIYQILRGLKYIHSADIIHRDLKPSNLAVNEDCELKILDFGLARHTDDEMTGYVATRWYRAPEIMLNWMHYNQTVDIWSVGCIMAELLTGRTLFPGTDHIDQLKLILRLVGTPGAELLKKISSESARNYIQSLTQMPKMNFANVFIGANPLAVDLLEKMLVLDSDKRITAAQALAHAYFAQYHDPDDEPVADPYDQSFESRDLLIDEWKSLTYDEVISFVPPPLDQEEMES

With `COc1ncc(C2=C(c3cn(CCCO)c4ncccc34)C(=O)NC2=O)c(OC)n1`, the inhibition in experiment [1] was determined as 89%; in experiment [2], 2%.

For `Cn1ccc(C2=C(c3cn(CCCO)c4ncccc34)C(=O)NC2=O)n1`, the inhibition stood at 44% in experiment [1] and 8% in experiment [2].

For the compound `O=C1NC(=O)C(c2cn(CCCO)c3ncccc23)=C1c1cnccn1`, the inhibition in experiment [1] was 30%; in experiment [2], 31%.

The values above are taken from the Kinase Knowledgebase extract (Sharma et al. 2016).
